Starred links: 1 amine or outer side, 2 acyl side, 3 side chain; linkers in the order of their positions; H or OH if unused. Positions of bridges follow the written chain, without caps; N, C: chain ends. Residues, ends and D or L forms follow the SMILES beside them. *: point of attachment. C18 diacid = O=C(O)CCCCCCCCCCCCCCCCC(=O)*; γGlu = O=C(O)[C@H](CCC(=O)[*:2])N[*:1]; AEEA = NCCOCCOCC(=O)O
Tests used:
[1] = PK after i.v. and s.c. administration to Göttingen minipig; conditions: female, Göttingen, minipig, in vivo
Procedure: (§1) The purpose of this study was to investigate pharmacokinetic and pharmacodynamic properties after intravenous (i.v.) and subcutaneous (s.c.) administration to Gottingen Minipig and domestic LYD pig, and to estimate bioavailability after s.c. dosing. Quantitative plasma analysis of CNP and cGMP levels were performed as described in
(§2) Animals and dosing: The pharmacokinetic and pharmacodynamic studies in Gottingen Minipig or domestic LYD pig were conducted at CRO Minerva Imaging or Novo Nordisk A/S, respectively. CNP compounds were dosed to normal female 1) Gottingen minipigs 6-12 months of age with an average weight of 22 kg or 2) domestic LYD pigs 4-5 months of age with and average weight of 80 kg. At least one week prior to dosing, permanent central venous catheters were implanted for blood sampling and intravenous (i.v.) dosing. For subcutaneous (s.c.) dosing, the pigs were ultrasound scanned and the optimal injection area laterally on the neck marked by a permanent tattoo. An insulin pen (NovoPen Echo or NovoPen 4) and insulin needle (NovoFine 32G/4 mm or NovoTwist 32G/5 mm) were used for accurate deposition of the CNP formulations in the subcutaneous fat tissue with the needle perpendicular to the skin.
(§3) CNP compounds were formulated according to the principles in General Methods of Preparation—Method G and were either A) 8 mM sodium phosphate, 250 mM glycerol, pH 6.5, B) 5 mM sodium acetate, 250 mM glycerol, pH 4.0, C) 5 mM sodium acetate, 240 mM propylene glycol, pH=4.0, D) 8 mM sodium phosphate, 250 mM glycerol, pH 7.5 or E) 20 mM sodium phosphate, 223 mM propylene glycol, pH 6.0.
(§4) Intravenously, the CNP compounds were dosed at 30-60 nmol/kg to Minipig and 15-43 nmol/kg to domestic pig using formulations A-E. Subcutaneously, the CNP compounds were dosed at 55-62 nmol/kg to Minipig and 20-30 nmol/kg to domestic pig using formulations A-D.
(§5) Sampling: Blood samples of approximately 1 mL were collected pre dose and up to 14 days post dose into EDTA-coated tubes (8 mM) for cGMP and CNP compound analysis by LC-MS. In few instances, cGMP was only analysed up to 48 hours post dose after intravenous dosing in domestic LYD pig. The blood samples were kept on wet ice for maximum 30 minutes until centrifugation for 10 minutes at 4° C. and minimum 1500G, and the plasma samples were stored at −20° C. until analysis.
(§6) Plasma concentration-time profiles were analyzed by non-compartmental PK analysis using Phoenix WinNonlin 8.1, Pharsight Inc., Mountain View, CA, USA. Calculation of the area under the plasma concentration-time curve (AUC) was based on the “linear up log down” method, and uniform weighting was used for estimation of the terminal rate constant (λz). S.c. bioavailability (F) was calculated as the dose-normalized AUC (AUC/dose) after s.c. administration divided by the AUC/dose after i.v. administration. […]

[2] = PK after i.v. and s.c. administration to domestic LYD pig; conditions: female, in vivo
Procedure: as §1, §2, §3, §4, §5, §6

[3] = Local tolerance of CNP compounds in rats (s.c. injection, histopathology); assay type: in vivo, Sprague Dawley rat; conditions: rat, s.c. 350 μl, about 1000 nmol/ml, 5 days post injection
Procedure: The purpose of this study was to evaluate the local tissue reaction to subcutaneous injection of CNP compounds in rats.
Procedure: The CNP compounds were formulated according to the principles described in General Methods of Preparation-Method G. Each Sprague Dawley rat (male, 10-11 weeks of age at arrival, Janvier, France) was dosed s.c. with 250 or 350 uL of the same compound (formulation concentration of 1000 nmol/mL) 120 h prior to tissue collection resulting in a total of two injections for each animal (Table 15). Injection site (flank or neck) was alternated across animals within each group and time point.
Animals had access to tap water and food (Altromin 1324) ad libitum. Group size was n=3 for vehicles and positive control, and n=4 for test compounds. Vehicles and compounds were formulated in either 5 mM sodium acetate, 250 mM glycerol, pH 4.0 or 8 mM sodium phosphate, 250 mM glycerol, pH 7.4 as shown in Table 16.
The animals were anesthetized with isoflurane. Via an electric shaving machine, a squared area of fur (2 cm×2 cm) was removed either from the rats' neck or flank area). For dosing, a new injection needle (25G canula, 1 ml syringe) was placed in the middle of the square border closest to the animal's head and the needle was inserted into the skin from the border towards the center of the square. […] On the day of tissue collection, the rats were deeply anaesthetized with isoflurane and euthanized by exsanguination. The injection sites were inspected and scored with regards to pathological lesions. The injection sites were evaluated, and any changes were noted (location, colour, shape and size), and sampled for histology preparation.
The injection sites were removed and fixed in 4% phosphate buffered neutral formaldehyde in sealed plastic containers.
Each injection site was subsequently cut into three sections 0.8 cm, 1.0 cm and 1.2 cm from the square border where the injection needle was placed, and, respectively, these sections represented the injection sites and the adjacent tissue. The tissue was processed, embedded in paraffin and cut in 2-4 μm thin sections, stained with the haematoxylin and eosin (H&E), and evaluated microscopically with a light microscope. Histopathological changes were graded on a 5-level scale (Minimal (Min), Mild (Mil), Moderate (Mod), Marked (Mar) and Severe (Sev)).

[4] = iv, Domestic LYD pig, i.v., read-out: CL (ml/hr/kg), Intravenous PK (converted)
[5] = iv, Domestic LYD pig, i.v., read-out: T½, iv (converted)

| Structure (SMILES) | bioavailability ([2]; LYD (domestic), pig, sc) [%] | clearance ([2]; LYD, pig, iv) [mL/h/kg] | half-life ([2]; LYD, pig, iv) [h] | half-life ([2]; LYD, pig, sc) [h] | clearance [2, 4] [mL/h/kg] | half-life [2, 5] [h] | other results |
| --- | --- | --- | --- | --- | --- | --- | --- |
| CC[C@H](C)[C@@H]1NC(=O)[C@H](CCCNC(=N)N)NC(=O)[C@H](CCC(=O)O)NC(=O)[C@H](CC(C)C)NC(=O)[C@H](CCCCN)NC(=O)[C@H](CC(C)C)NC(=O)CNC(=O)[C@H](Cc2ccccc2)NC(=O)[C@@H](NC(=O)CNC(=O)[C@H](CCCCN)NC(=O)[C@H](CO)NC(=O)[C@H](CC(C)C)NC(=O)CNC(=O)[C@H](CCCCN)NC(=O)[C@H](CCCCN)NC(=O)[C@H](CCC(N)=O)NC(=O)[C@H](C)NC(=O)CNC(=O)[C@H](CCCCN)NC(=O)[C@H](Cc2ccc(O)cc2)NC(=O)[C@H](CCCCN)NC(=O)[C@H](CCCNC(=N)N)NC(=O)[C@H](C)NC(=O)COCCOCCNC(=O)COCCOCCNC(=O)CC[C@H](NC(=O)CCCCCCCCCCCCCCCCC(=O)O)C(=O)O)CSSC[C@@H](C(=O)O)NC(=O)CNC(=O)[C@H](CC(C)C)NC(=O)CNC(=O)[C@H](CO)NC(=O)[C@H](CC(C)C)NC(=O)[C@H](CO)NC(=O)CNC1=O [Compound 0776] ({C18 diacid-γGlu-AEEA-AEEA}-ARKYKGAQKKGLSKGCFGLKLERIGSLSGLGC-OH; disulfide 16-32) | 7 | 1.34 | 29 | 41 | – | – | clearance ([1]; iv): 0.841 mL/h/kg; half-life ([1]; iv): 60 h; bioavailability ([1]; sc): 13%; half-life ([1]; sc): 56 h |
| CC[C@H](C)[C@@H]1NC(=O)[C@H](CCCNC(=N)N)NC(=O)[C@H](CC(=O)O)NC(=O)[C@H](CC(C)C)NC(=O)[C@@H]2CCCN2C(=O)[C@H](CC(C)C)NC(=O)CNC(=O)[C@H](Cc2ccccc2)NC(=O)[C@@H](NC(=O)CNC(=O)[C@H](CCCCN)NC(=O)[C@H](CO)NC(=O)[C@H](CC(C)C)NC(=O)CNC(=O)[C@H](CCCCN)NC(=O)[C@H](CCCCN)NC(=O)[C@H](CCC(N)=O)NC(=O)[C@H](C)NC(=O)CNC(=O)[C@H](CCC(=O)O)NC(=O)[C@H](Cc2ccc(O)cc2)NC(=O)COCCOCCNC(=O)COCCOCCNC(=O)CC[C@H](NC(=O)CCCCCCCCCCCCCCCCC(=O)O)C(=O)O)CSSC[C@@H](C(=O)O)NC(=O)CNC(=O)[C@H](CC(C)C)NC(=O)CNC(=O)[C@H](CO)NC(=O)[C@H](CC(C)C)NC(=O)[C@H](CO)NC(=O)CNC1=O [Compound 1225] ({C18 diacid-γGlu-AEEA-AEEA}-YEGAQKKGLSKGCFGLPLDRIGSLSGLGC-OH; disulfide 13-29) | – | – | – | – | 3.23 | 15 | – |
| CC[C@H](C)[C@@H]1NC(=O)[C@H](CCCNC(=N)N)NC(=O)[C@H](CC(=O)O)NC(=O)[C@H](CC(C)C)NC(=O)[C@@H]2CCCN2C(=O)[C@H](CC(C)C)NC(=O)CNC(=O)[C@H](Cc2ccccc2)NC(=O)[C@@H](NC(=O)CNC(=O)[C@H](CO)NC(=O)[C@H](CO)NC(=O)[C@H](CC(C)C)NC(=O)CNC(=O)[C@H](CCCCN)NC(=O)[C@H](CCCCN)NC(=O)[C@H](CCC(N)=O)NC(=O)[C@H](C)NC(=O)CNC(=O)[C@H](CCC(=O)O)NC(=O)[C@H](Cc2ccc(O)cc2)NC(=O)COCCOCCNC(=O)COCCOCCNC(=O)CC[C@H](NC(=O)CCCCCCCCCCCCCCCCC(=O)O)C(=O)O)CSSC[C@@H](C(=O)O)NC(=O)CNC(=O)[C@H](CC(C)C)NC(=O)CNC(=O)[C@H](CO)NC(=O)[C@H](CC(C)C)NC(=O)[C@H](CO)NC(=O)CNC1=O [Compound 1227] ({C18 diacid-γGlu-AEEA-AEEA}-YEGAQKKGLSSGCFGLPLDRIGSLSGLGC-OH; disulfide 13-29) | – | – | – | – | 5.54 | 11 | bioavailability ([2]; sc, Domestic LYD pig, s.c. bioavailability, read-out: F (%), Subcutaneous PK): 55%; half-life ([2]; sc, Domestic LYD pig, s.c., read-out: T½, sc (converted)): 9 h |
| CC[C@H](C)[C@@H]1NC(=O)[C@H](CCCNC(=N)N)NC(=O)[C@H](CC(=O)O)NC(=O)[C@H](CC(C)C)NC(=O)[C@H](CCCCN)NC(=O)[C@H](CC(C)C)NC(=O)CNC(=O)[C@H](Cc2ccccc2)NC(=O)[C@@H](NC(=O)CNC(=O)[C@H](CCCCN)NC(=O)[C@H](CO)NC(=O)[C@H](CC(C)C)NC(=O)CNC(=O)[C@H](CCCCN)NC(=O)[C@H](CCCCN)NC(=O)[C@H](CCC(N)=O)NC(=O)[C@H](C)NC(=O)CNC(=O)[C@H](Cc2c[nH]cn2)NC(=O)[C@H](CCC(=O)O)NC(=O)COCCOCCNC(=O)COCCOCCNC(=O)CC[C@H](NC(=O)CCCCCCCCCCCCCCCCC(=O)O)C(=O)O)CSSC[C@@H](C(=O)O)NC(=O)CNC(=O)[C@H](CC(C)C)NC(=O)CNC(=O)[C@H](CO)NC(=O)[C@H](CC(C)C)NC(=O)[C@H](CO)NC(=O)CNC1=O [Compound 1235] | 25 | 3.28 | 20 | 29 | – | – | – |
| CC[C@H](C)[C@@H]1NC(=O)[C@H](CCCNC(=N)N)NC(=O)[C@H](CC(=O)O)NC(=O)[C@H](CC(C)C)NC(=O)[C@@H]2CCCN2C(=O)[C@H](CC(C)C)NC(=O)CNC(=O)[C@H](Cc2ccccc2)NC(=O)[C@@H](NC(=O)CNC(=O)[C@H](CCCCN)NC(=O)[C@H](CO)NC(=O)[C@@H](NC(=O)CNC(=O)[C@@H](NC(=O)[C@H](Cc2c[nH]cn2)NC(=O)[C@H](CCC(N)=O)NC(=O)[C@H](C)NC(=O)CNC(=O)[C@H](Cc2c[nH]cn2)NC(=O)[C@H](Cc2ccc(O)cc2)NC(=O)[C@H](CCCCN)NC(=O)[C@H](CCCNC(=N)N)NC(=O)[C@H](C)NC(=O)COCCOCCNC(=O)COCCOCCNC(=O)CC[C@H](NC(=O)CC[C@H](NC(=O)CC[C@H](NC(=O)CCCCCCCCCCCCCCCCC(=O)O)C(=O)O)C(=O)O)C(=O)O)[C@@H](C)O)C(C)C)CSSC[C@@H](C(=O)O)NC(=O)CNC(=O)[C@H](CC(C)C)NC(=O)CNC(=O)[C@H](CO)NC(=O)[C@H](CC(C)C)NC(=O)[C@H](CO)NC(=O)CNC1=O [Compound 1420] ({C18 diacid-γGlu-γGlu-γGlu-AEEA-AEEA}-ARKYHGAQHTGVSKGCFGLPLDRIGSLSGLGC-OH; disulfide 16-32) | – | – | – | – | – | – | Number of injections by severity of necrosis: Mil. [3]: 1; Number of injections by severity of necrosis: NAD (No Abnormalities Detected) [3]: 3 |
